Values of other authors as cited in US20160106679A1, “TABLET WITH INCREASED DRUG LOAD OF ODANACATIB” (SANDOZ AG, priority 2013, published 2016).
Where two headings read alike, the source gives them in different places.

Columns and labels:
[1] = test system: patients
[2] = highly crystalline odanacatib

CC(C)(F)C[C@H](N[C@@H](c1ccc(-c2ccc(S(C)(=O)=O)cc2)cc1)C(F)(F)F)C(=O)NC1(C#N)CC1 [Odanacatib, odanacatib]
BMD change at lumbar spine, hip and femoral neck ([1]; patients treated once weekly with 20-50 mg): increases in lumbar spine, hip and femoral neck BMD
BMD change at lumbar spine, hip and femoral neck ([1]; patients treated with low doses): decreases in BMD at the same sites
aqueous solubility [2]: low
